In patent US20140315933A1, “CHEMICAL COMPOUNDS” (Pfizer Limited, priority 2013, published 2014):
Structures can show the parent of a compound that is named as a salt.

Molecular target: T1, URAT-1 transporter (Homo sapiens, UniProt Q96S37)
T1 construct: expressed in transfected cells
Assay: URAT-1 inhibitor activity: [14C]-uric acid uptake into CHO-URAT1(L)GFP#8 (CHO#8) cells, scintillation proximity
Assay type: cell-based
Excerpt: The nucleotide sequence for the long isoform of URAT1 (NM_144585) was C-terminally fused to that of enhanced green fluorescent protein (eGFP) (hereinafter referred to as URAT1(L)GFP). The combined sequence was codon-optimised and custom synthesized. The synthesized sequence was generated in pDONR221 Gateway entry vector (Invitrogen Life Technologies) prior to cloning in pLenti6.3/V5 Gateway destination vector (Invitrogen Life Technologies).
Lentiviral particles were generated according to ViraPower HiPerform expression system procedure (Invitrogen Life Technologies) and used to transduce CHO cells. Blasticidin selection enabled the generation of a stable clonal pool of cells, confirmed by expression of GFP and V5 epitope. The clonal pools were sorted using fluorescence-activated cell sorting (FACS) on the basis of GFP expression with the gating set at the top 50% of expression into single cells which were subsequently expanded to generate clonal lines. […] This cell line was used for all screening activities and is referred to as CHO-URAT1(L)GFP#8 or CHO#8.
The potency of the compounds of formula (I) as inhibitors of the URAT-1 transporter was determined as follows.
CHO#8 cells were cultured in cell line maintenance flasks in medium consisting of Dulbecco's modified Eagle medium (DMEM) with high glucose and sodium pyruvate (4.5 g of glucose per litre, Invitrogen Life Technologies), supplemented with heat-inactivated foetal bovine serum (FBC, 10% v/v), 1×NEAA (non-essential amino acids) and blasticidin (10 μg/ml). Cultures were grown in 175 cm^2 tissue culture flasks in a humidified incubator at approximately 37° C. in approximately 95% air/5% CO2. Near confluent CHO#8 cell cultures were harvested by trypsinisation, re-suspended in culture medium and the process was repeated once or twice weekly to provide sufficient cells for use.
Assay ready flasks were generated by the same method, except the cells were not cultured in blasticidin.
Assay ready frozen cells were generated by freezing 40,000,000 cells in 1 ml of FBS (without blasticidin) containing 10% DMSO per vial. One vial was sufficient for 5 assay plates. Each vial was thawed rapidly to 37° C., washed and re-suspended in pre-warmed culture medium for seeding onto assay plates.
CHO#8 cells were seeded onto Cytostar™ 96-well plates at a density of […]. The cells were cultured for 1 day at approximately 37° C. in a humidified incubator containing approximately 5% CO2 in air. After approximately 24 hours culture, cells were used for uptake experiments.
On the day of assay, culture medium was removed from the wells and the cells were washed once with 50 μL of chloride-containing buffer (136.7 mM NaCl, 5.36 mM KCl, 0.952 mM CaCl2, 0.441 mM KH2PO4, 0.812 mM MgSO4, 5.6 mM D-glucose, 0.383 mM Na2HPO4.2H2O, 10 mM HEPES, pH 7.4 with NaOH). The cells were pre-incubated with another 50 μL of chloride-containing buffer for one hour at approximately 37° C. in a humidified incubator containing approximately 5% CO2 in air.
Assay compound plates were prepared by diluting the compounds of formula (I) with chloride-free buffer (125 mM Na-gluconate, 4.8 mM K-gluconate, 1.3 mM Ca-gluconate, 1.2 mM KH2PO4, 1.2 mM MgSO4, 5.6 mM D-glucose, 25 mM HEPES, pH 7.4 with NaOH) in 100% DMSO to a final concentration of 1% DMSO. [^14C]-Uric Uric acid working stock was made by addition of radiolabeled compound to a final concentration of 120 nM in chloride-free buffer. In all wells, the final assay concentration of solvent (DMSO) was 0.25%; the final assay concentration of [^14C]-uric acid was 30 nM in chloride-free buffer and the final compound of formula (I) concentrations ranged from 0 to 10 μM.
After pre-incubation, cells were washed with 50 μL of chloride-free buffer and another 50 μL of chloride-free buffer was added. […]

T1 sequence (Q96S37 with tags, fused parts or gaps): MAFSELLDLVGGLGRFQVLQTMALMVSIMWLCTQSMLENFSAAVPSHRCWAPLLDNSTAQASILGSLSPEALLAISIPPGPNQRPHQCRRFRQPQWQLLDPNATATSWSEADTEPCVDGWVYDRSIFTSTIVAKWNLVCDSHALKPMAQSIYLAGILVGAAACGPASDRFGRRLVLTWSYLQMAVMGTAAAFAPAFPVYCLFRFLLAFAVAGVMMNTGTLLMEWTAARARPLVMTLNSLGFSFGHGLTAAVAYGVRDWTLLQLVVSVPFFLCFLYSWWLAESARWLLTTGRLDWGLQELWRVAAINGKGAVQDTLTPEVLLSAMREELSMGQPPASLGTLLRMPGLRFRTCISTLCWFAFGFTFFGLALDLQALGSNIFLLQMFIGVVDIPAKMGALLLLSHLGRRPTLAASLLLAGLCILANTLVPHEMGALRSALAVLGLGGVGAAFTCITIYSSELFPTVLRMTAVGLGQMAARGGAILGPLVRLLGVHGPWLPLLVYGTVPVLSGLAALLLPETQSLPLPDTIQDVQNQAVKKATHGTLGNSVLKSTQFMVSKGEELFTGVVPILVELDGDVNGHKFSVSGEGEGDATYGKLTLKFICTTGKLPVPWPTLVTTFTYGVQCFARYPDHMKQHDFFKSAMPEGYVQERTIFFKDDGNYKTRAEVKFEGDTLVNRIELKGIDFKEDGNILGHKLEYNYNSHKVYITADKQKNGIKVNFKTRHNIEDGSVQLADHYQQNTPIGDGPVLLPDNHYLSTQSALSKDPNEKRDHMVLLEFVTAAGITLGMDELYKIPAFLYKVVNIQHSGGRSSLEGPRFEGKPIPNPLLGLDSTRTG

Compound	IC50 [µM]
COc1ccc(Oc2ccc(S(=O)(=O)Nc3ncns3)cc2C#N)c(Cl)c1 [compound 290]	1.1
N#Cc1cc(S(=O)(=O)Nc2ncns2)ccc1Oc1cc(F)ccc1F [Example 50, 3-cyano-4-(2,5-difluorophenoxy)-N-(1,2,4-thiadiazol-5-yl)benzenesulfonamide]	2.55
COc1ccc(C#N)cc1Oc1cc(F)c(S(=O)(=O)Nc2nncs2)cc1Cl [compound 309]	> 10
Cc1cc(S(=O)(=O)Nc2cscn2)c(F)cc1Oc1ccc(F)c(F)c1 [compound 223]	> 10
N#Cc1cc(S(=O)(=O)Nc2ncns2)ccc1Oc1cncc(Cl)c1 [Example 19, 4-[(5-chloropyridin-3-yl)oxy]-3-cyano-N-(1,2,4-thiadiazol-5-yl)benzenesulfonamide]	> 10
N#Cc1cc(S(=O)(=O)Nc2nccs2)ccc1Oc1ccc(Br)cc1CO [Example 8, 4-[4-bromo-2-(hydroxymethyl)phenoxy]-3-cyano-N-(1,3-thiazol-2-yl)benzenesulfonamide]	2.14
Cn1ccc(NS(=O)(=O)c2ccc(Oc3ccc(C#N)c(Cl)c3)c(C#N)c2)n1 [Example 4, 4-(3-chloro-4-cyanophenoxy)-3-cyano-N-(1-methyl-1H-pyrazol-3-yl)benzenesulfonamide diethylamine salt]	3.36
N#Cc1cc(S(=O)(=O)Nc2nccs2)ccc1Oc1ccc(I)cc1F [compound 178]	0.645
CCOc1cccc(Oc2ccc(S(=O)(=O)Nc3ncns3)cc2C#N)c1 [compound 280]	2.29
O=S(=O)(Nc1nncs1)c1cc(Cl)c(Oc2c(F)cccc2Cl)cc1F [compound 332]	> 2.38
Cc1ccnc(C)c1Oc1cc(F)c(S(=O)(=O)Nc2nncs2)cc1Cl [compound 308]	> 10
N#Cc1cc(S(=O)(=O)Nc2ncc(F)s2)ccc1Oc1cc(F)c(F)cc1F [Example 113, 3-cyano-N-(5-fluoro-1,3-thiazol-2-yl)-4-(2,4,5-trifluorophenoxy)benzenesulfonamide]	1.12
COc1ccc(C)cc1Oc1ccc(S(=O)(=O)Nc2ncns2)cc1C#N [compound 284]	2.52
N#Cc1cc(Oc2ccc(S(=O)(=O)Nc3nncs3)cc2C#N)ccc1F [compound 199]	> 6.37
COc1ccc(Cl)c(Oc2ccc(S(=O)(=O)Nc3ncns3)cc2C#N)c1 [compound 261]	1.82
Cc1ccccc1Oc1ccc(S(=O)(=O)Nc2ncc(F)s2)cc1C#N [Example 112, 3-cyano-N-(5-fluoro-1,3-thiazol-2-yl)-4-(2-methylphenoxy)benzenesulfonamide]	4.03
CC(C)c1cccc(Oc2ccc(S(=O)(=O)Nc3ncns3)cc2C#N)c1 [Example 14, 3-cyano-4-[3-(propan-2-yl)phenoxy]-N-(1,2,4-thiadiazol-5-yl)benzenesulfonamide diethylamine salt]	> 2.9
COc1cc(Cl)ccc1Oc1cc(F)c(S(=O)(=O)Nc2ncns2)cc1Cl [Example 154, 5-chloro-4-(4-chloro-2-methoxyphenoxy)-2-fluoro-N-(1,2,4-thiadiazol-5-yl)benzenesulfonamide]	1.63
N#Cc1cc(S(=O)(=O)Nc2nccs2)ccc1Oc1ccc(Cl)c(I)c1 [compound 169]	0.073
Cc1ccnc(C)c1Oc1ccc(S(=O)(=O)Nc2ncns2)cc1C#N [compound 275, trifluoroacetic acid salt]	> 10

Compound	IC50 [µM]
N#Cc1cc(Oc2cc(F)c(S(=O)(=O)Nc3cscn3)cc2Br)ccc1F [compound 222]	> 3.13
N#Cc1ccc(Oc2cc(F)c(S(=O)(=O)Nc3cscn3)cc2F)cc1Cl [compound 231]	> 10
N#Cc1ccc(Oc2ccc(S(=O)(=O)Nc3ncns3)cc2C#N)cc1 [Example 15, 3-cyano-4-(4-cyanophenoxy)-N-(1,2,4-thiadiazol-5-yl)benzenesulfonamide diethylamine salt]	> 7.37
O=S(=O)(Nc1nncs1)c1cc(Cl)c(Oc2ccc(Cl)cc2OC(F)F)cc1F [Example 152, 5-chloro-4-[4-chloro-2-(difluoromethoxy)phenoxy]-2-fluoro-N-(1,3,4-thiadiazol-2-yl)benzenesulfonamide]	> 10
Cc1cc(Oc2cc(F)c(S(=O)(=O)Nc3nncs3)cc2Cl)ccc1F [compound 322]	2.99
N#Cc1cc(S(=O)(=O)Nc2ncc(F)s2)ccc1Oc1ccc(F)cc1Cl [Example 130, 4-(2-chloro-4-fluorophenoxy)-3-cyano-N-(5-fluoro-1,3-thiazol-2-yl)benzenesulfonamide]	0.414
CCOc1ncccc1Oc1ccc(S(=O)(=O)Nc2ncns2)cc1C#N [Example 17, 3-cyano-4-[(2-ethoxypyridin-3-yl)oxy]-N-(1,2,4-thiadiazol-5-yl)benzenesulfonamide diethylamine salt]	0.161
N#Cc1cc(S(=O)(=O)Nc2ncns2)ccc1Oc1ccc(Cl)cc1 [Example 13, 4-(4-chlorophenoxy)-3-cyano-N-(1,2,4-thiadiazol-5-yl)benzenesulfonamide diethylamine salt]	1.27
N#Cc1ccc(Oc2ccc(S(=O)(=O)Nc3cscn3)cc2C#N)cc1Cl [compound 220, 4-(3-chloro-4-cyanophenoxy)-3-cyano-N-(1,3-thiazol-4-yl)benzenesulfonamide]	0.11
N#Cc1cc(S(=O)(=O)Nc2ncc(F)s2)ccc1Oc1cc(F)ccc1F [Example 102, 3-cyano-4-(2,5-difluorophenoxy)-N-(5-fluoro-1,3-thiazol-2-yl)benzenesulfonamide]	1.43
N#Cc1cc(S(=O)(=O)Nc2ncc(F)s2)ccc1Oc1ccc(Cl)cc1C(F)(F)F [Example 92, 4-[4-chloro-2-(trifluoromethyl)phenoxy]-3-cyano-N-(5-fluoro-1,3-thiazol-2-yl)benzenesulfonamide]	> 7.86
CCSc1ncccc1Oc1ccc(S(=O)(=O)Nc2ncns2)cc1C#N [compound 255, trifluoroacetic acid salt]	0.684
N#Cc1cc(S(=O)(=O)Nc2nccs2)ccc1Oc1cccc(I)c1 [compound 167]	0.166
CC(C)c1cccc(Oc2ccc(S(=O)(=O)Nc3ncc(F)s3)cc2F)c1 [Example 69, 3-fluoro-N-(5-fluoro-1,3-thiazol-2-yl)-4-[3-(propan-2-yl)phenoxy]benzenesulfonamide]	> 6.34
Cc1cc(F)ccc1Oc1ccc(S(=O)(=O)Nc2ncc(F)s2)cc1C#N [Example 93, 3-cyano-4-(4-fluoro-2-methylphenoxy)-N-(5-fluoro-1,3-thiazol-2-yl)benzenesulfonamide]	> 1.61
N#Cc1cc(S(=O)(=O)Nc2ncns2)ccc1Oc1ccccc1F [Example 36, 3-cyano-4-(2-fluorophenoxy)-N-(1,2,4-thiadiazol-5-yl)benzenesulfonamide]	1.94
CCc1cc(F)ccc1Oc1ccc(S(=O)(=O)Nc2ncc(F)s2)cc1C#N [Example 131, 3-cyano-4-(2-ethyl-4-fluorophenoxy)-N-(5-fluoro-1,3-thiazol-2-yl)benzenesulfonamide]	0.297
N#Cc1cc(Oc2ccc(S(=O)(=O)Nc3nncs3)cc2Cl)ccc1F [compound 216]	1.42
COc1ccc(F)cc1Oc1ccc(S(=O)(=O)Nc2ncns2)cc1C#N [compound 277]	> 5.43
N#Cc1cc(S(=O)(=O)Nc2nccs2)ccc1Oc1ccc(CO)cc1F [Example 7, 3-cyano-4-[2-fluoro-4-(hydroxymethyl)phenoxy]-N-(1,3-thiazol-2-yl)benzenesulfonamide, diethylamine salt]	0.141
